According to US20230365590A1, “BIPHENYL COMPOUND AS IMMUNOMODULATOR, PREPARATION METHOD THEREFOR AND APPLICATION THEREOF” (SHENZHEN CHIPSCREEN BIOSCIENCES CO., LTD., priority 2020, published 2023):

Assays:
[1] = molecular target: PD-1/PD-L1 binding (recombinant human PD-L1-Fc fusion protein and His-PD-1 protein) (Homo sapiens (Human), UniProt Q9NZQ7); assay: In vitro inhibitory activity against PD-1/PD-L1 binding (HTRF); conditions: read-out: IC50 for inhibiting PD-1/PD-L1 binding in vitro
Excerpt: Homogeneous time resolved fluorescence method (HTRF): This method uses the recombinant human PD-L1 protein fused with hFc tag and the recombinant human PD-1 protein fused with His tag, which are interacting ligands and receptors. When the anti-hFc antibody containing chelated Eu tag and the anti-His antibody containing XL665 fluorescein tag are used to bind with the above two corresponding tags respectively and are excited by 320 nm laser, energy can be transferred from Eu element to XL665 fluorescein due to ligand receptor binding, and the XL665 fluorescein is excited to emit light with a wavelength of 665 nm. When an inhibitor for inhibiting interaction of PD-L1 and PD-1 is added, the binding of the ligand and the receptor is destroyed, causing a long distance between Eu and XL665. As a result, the energy cannot be transferred, and the XL665 fluorescein will not be excited.
(§1) Experimental Materials and Devices The recombinant human PD-1 protein with His tag (His-PD-1 protein, Cat #: 10377-H08H-50) and the recombinant human PD-L1-Fc fusion protein (PD-L1-Fc fusion protein, Cat #: 10084-H02H-100) were purchased from Sino Biological Inc., anti-hFc-Eu^3+ antibody and anti-His-XL665 antibody were purchased from Cisbio, and other related reagents such as a diluent buffer (diluent buffer 5 (Cat #: 62DL5DDC) and a detection buffer (PPI-European detection buffer, Cat #: 61DB9RDF) were purchased from Cisbio. Fluorescence detector Tecan (Spark 10M) was purchased from Tecan Company in Switzerland.
The experiment process was carried out according to the flow required in the operating manual of the test reagent. The process was as follows: • (1) Experiment preparation: A test compound was diluted to different concentration gradients with the dilution buffer (the highest final concentration in a 20 μL final reaction system was 10 μM). The His-PD-1 protein was diluted to 800 nM (the final concentration in the 20 final reaction system was 100 nM). The PD-L1-Fc fusion protein was diluted to 16 nM (the final concentration was 2 nM). […] All tests were conducted by use of multiple holes. • (4) The fluorescence detector Tecan (Spark 10M) was used to detect the fluorescence signal of each hole. The excitation wavelength was 320 nm, and the emission wavelengths for detection were 620 nm and 665 nm, respectively. The strength of PD-1/PD-L1 binding refers to a fluorescence signal ratio Em665/Em620. • (5) Calculation formula of binding inhibition rate of test compound: Inhibition rate (%)=[1−(fluorescence signal ratio of detected hole−fluorescence signal ratio of 100% inhibition negative control)]/(fluorescence signal ratio of 0% inhibition positive control−fluorescence signal ratio of 100% inhibition negative control)×100%. The 50% inhibition concentration (IC50) was calculated after the PD-1/PD-L1 binding inhibition rates of the test compound with different concentration gradients were calculated respectively.

[2] = molecular target: CD80/PD-L1 binding (recombinant human His-CD80 protein and PD-L1-Fc fusion protein) (Homo sapiens (Human), UniProt Q9NZQ7); assay: In vitro inhibitory activity against CD80/PD-L1 binding (HTRF); conditions: read-out: IC50 for inhibiting CD80/PD-L1 binding in vitro
CD80/PD-L1 binding (recombinant human His-CD80 protein and PD-L1-Fc fusion protein), sequence (Q9NZQ7 19-239): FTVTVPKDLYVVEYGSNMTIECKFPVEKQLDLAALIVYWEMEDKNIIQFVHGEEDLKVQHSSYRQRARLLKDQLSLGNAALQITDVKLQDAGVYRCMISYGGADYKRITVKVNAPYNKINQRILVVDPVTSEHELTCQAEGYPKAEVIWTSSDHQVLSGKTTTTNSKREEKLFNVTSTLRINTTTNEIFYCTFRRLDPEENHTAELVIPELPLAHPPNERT
Excerpt: In addition to PD-1, PD-L1 can also play an immune inhibition role by binding to CD80. Similarly, in vitro CD80/PD-L1 binding or binding inhibition test can also be conducted by homogeneous time-resolved fluorescence (HTRF). When the anti-hFc-Eu^3+ antibody and the anti-His-XL665 antibody are used to bind to the hFC tag fused to PD-L1 and the His tag fused to CD80 respectively, and after excitation with 320 nm laser, energy can be transferred from Eu element to XL665 fluorescein due to the binding of PD-L1 and CD80 to excite the XL665 fluorescein to emit light. When an inhibitor for inhibiting interaction of PD-L1 and CD80 is added, the binding of PD-L1 and CD80 is destroyed, causing a long distance between Eu and XL665. As a result, the energy cannot be transferred, and the XL665 fluorescein will not be excited.
as §1, with “The” for “Experimental Materials and Devices The”, “CD80” for “PD-1”, “(His-CD80” for “(His-PD-1”, “10698-H08H-100)” for “10377-H08H-50)”, “(Diluent” for “(diluent”
The experiment process was carried out according to the flow required in the operating manual of the test reagent (Invitrogen). The process was as follows: • (1) Experiment preparation: A test compound was diluted to different concentration gradients with the dilution buffer (the highest final concentration in a 20 μL final reaction system was 10 μM). The His-CD80 protein was diluted to 800 nM (the final concentration in the 20 final reaction system was 100 nM). The PD-L1-Fc fusion protein was diluted to 16 nM (the final concentration was 2 nM). The anti-His-XL665 antibody and the anti-hFc-Eu^3+antibody were diluted 20 times and 100 times respectively with the detection buffer according to reagent requirements. • (2) First, 5 μL of the test compound, 2.5 μL of the His-CD80 fusion protein and 2.5 μL of the […] fusion protein solution were well mixed and incubated at room temperature for 15 min; then, 5 μL of the anti-His-XL665 antibody and 5 μL of the anti-hFc-Eu^3+antibody were added to the system and further incubated for 3 h before test. • (3) During the test reaction, control groups were set, including a 0% inhibitory positive control without adding the test compound and a 100% inhibitory negative control without adding the CD80 protein. All tests were conducted by use of multiple holes. • (4) The fluorescence detector Tecan (Spark 10M) was used to detect the fluorescence signal of each hole. The excitation wavelength was 320 nm, and the emission wavelengths for detection were 620 nm and 665 nm, respectively. The strength of CD80/PD-L1 binding refers to a fluorescence signal ratio Em665/Em620. • (5) Calculation formula of binding inhibition rate of test compound: Inhibition rate (%)=[1−(fluorescence signal ratio of detected hole−fluorescence signal ratio of 100% inhibition negative control)]/(fluorescence signal ratio of 0% inhibition positive control — fluorescence signal ratio of 100% inhibition negative control)×100%. The 50% inhibition concentration (IC50) was calculated after the CD80/PD-L1 binding inhibition rates of the test compound with different concentration gradients were calculated respectively.

PD-1/PD-L1 binding (recombinant human PD-L1-Fc fusion protein and His-PD-1 protein), sequence (Q9NZQ7 19-239): as above

## COCC12CCC(CCN3CCc4c(nc(C(=O)Nc5cccc(-c6cccc(NC(=O)c7nc8c(n7C)CCN(CCC79CCC(C(=O)O)(CC7)C9)C8)c6Cl)c5F)n4C)C3)(CC1)C2 [Compound I-9, 4-(2-(2-((2-chloro-2′-fluoro-3′-(5-(2-(4-(methoxymethyl)bicyclo[2.2.1]heptan-1-yl)ethyl)-1-methyl-4,5,6,7-tetrahydro-1H-imidazo [4,5-c]pyridine-2-carboxamido)-[1,1′-biphenyl]-3-yl)carbamoyl)-1-methyl-1,4,6,7-tetrahydro-5H-imidazo[4,5-c]pyridin-5-yl)ethyl)bicyclo[2.2.1]heptane-1-carboxylic acid]
[1]
  IC50: 0.88 nM
[2]
  IC50: 0.41 nM

## Cn1c(C(=O)Nc2cccc(-c3cccc(NC(=O)c4nc5c(n4C)CCN(CCC46CCC(C(=O)O)(CC4)C6)C5)c3Cl)c2F)nc2c1CCN(CCC13CCC(COC(F)F)(CC1)C3)C2 [Compound I-10, 4-(2-(2-((2-chloro-3′-(5-(2-(4-((difluoromethoxy)methyl)bicyclo[2.2.1]heptan-1-yl)ethyl)-1-methyl-4,5,6,7-tetrahydro-1H-imidazo[4,5-c]pyridine-2-carboxamido)-2′-fluoro-[1,1′-biphenyl]-3-yl)carbamoyl)-1-methyl-1,4,6,7-tetrahydro-5H-imidazo[4,5-c]pyridin-5-yl)ethyl)bicyclo[2.2.1]heptane-1-carboxylic acid]
[1]
  IC50: 1.13 nM
[2]
  IC50: 0.62 nM

## COCC12CCC(CCN3CCc4c(nc(C(=O)Nc5cccc(-c6cccc(NC(=O)c7nc8c(n7C)CCN(CCC79CCC(C(=O)O)(CC7)C9)C8)c6Cl)c5C#N)n4C)C3)(CC1)C2 [Compound I-11, 4-(2-(2-((2-chloro-2′-cyano-3′-(5-(2-(4-(methoxymethyl)bicyclo[2.2.1]heptan-1-yl)ethyl)-1-methyl-4,5,6,7-tetrahydro-1H-imidazo[4,5-c]pyridine-2-carboxamido)-[1,1′-biphenyl]-3-yl)carbamoyl)-1-methyl-1,4,6,7-tetrahydro-5H-imidazo[4,5-c]pyridin-5-yl)ethyl)bicyclo[2.2.1]heptane-1-carboxylic acid]
[1]
  IC50: 1.94 nM
[2]
  IC50: 1.43 nM

## COCC12CCC(CCN3CCc4c(nc(C(=O)Nc5cccc(-c6cccc(NC(=O)c7nc8c(n7C)CCN(CC79CCC(C(=O)O)(CC7)C9)C8)c6Cl)c5C)n4C)C3)(CC1)C2 [Compound I-12, 4-((2-((2-chloro-3′-(5-(2-(4-(methoxymethyl)bicyclo[2.2.1]heptan-1-yl)ethyl)-1-methyl-4,5,6,7-tetrahydro-1H-imidazo[4,5-c]pyridine-2-carboxamido)-2′-methyl-[1,1′-biphenyl]-3-yl)carbamoyl)-1-methyl-1,4,6,7-tetrahydro-5H-imidazo[4,5-c]pyridin-5-yl)methyl)bicyclo[2.2.1]heptane-1-carboxylic acid]
[1]
  IC50: 2.46 nM
[2]
  IC50: 1.64 nM

## Cn1c(C(=O)Nc2cccc(-c3cccc(NC(=O)c4nc5c(n4C)CCN(CC46CCC(C(=O)O)(CC4)C6)C5)c3Cl)c2Cl)nc2c1CCN(CCO)C2 [Example 180]
[1]
  IC50: 4.62 nM
[2]
  IC50: 5.53 nM
